Here are results for one compound from US9180155B2, “Compositions from Nigella sativa” (Bio Nexus, Ltd, priority 2013, dated 2015).

A short description of experiment [1]: DPPH free radical scavenging (antioxidant) assay. To be noted: computed on basis of TQ content; inactive samples tested up to 1000 μg/mL. The procedure: Antioxidant activity was determined utilizing 2,2-diphenyl-1-picrylhydrazyl (DPPH), which is a stable radical. The odd electron in the DPPH free radical gives a strong absorption maximum at 550 nm and is purple in color. The color turns from purple to yellow as the molar absorption of the DPPH radical at 550 nm is reduced when the odd electron of DPPH radical becomes paired with hydrogen from a free radical scavenging antioxidant to form the reduced DPPH-H. The test samples were dissolved in methanol containing 1% dimethyl sulfoxide and added to microtiter wells in 100 μL aliquots to 100 μL of a 100 μM DPPH solution in methanol. Readings were taken at 10, 30 and 60 minutes following the addition of the test material. Percent inhibition of the DPPH radical by the test material was computed relative to the inhibition of the DPPH radical by the vitamin E analog trolox and tabulated as μmol trolox/g test material.

The subject of experiment [2] is IL-6 secretion in 3T3-L1 adipocytes. Briefly: IL-6 secretion in t10-CLA-stimulated 3T3-L1 adipocytes. It counts as cell-based, murine. To be noted: t10-CLA 50 μM control = 100; μg TQ equivalents/mL: Thymoquinone 5.0, NS8 0.11, NS9 0.99, NS10 0.012, NSSpent#2 0.0005; NSSpent#1 5 μg/mL; listed as TQ. The procedure:
The 3T3-L1 murine fibroblast model as used in Example 4 was used in this experiments. Test materials were added four hours prior to the addition of t10-CLA at a concentration of 50 μM. Following overnight incubation, the supernatant media were sampled for determination of IL-6 and adiponectin. The IL-6 secreted into the medium in response to […] stimulation was quantified using the Quantikine® Mouse IL-6 Immunoassay kit with no modifications (R&D Systems, Minneapolis, Minn.). […] All supernatant media samples were diluted 1:30 for quantification. Test materials and were assayed in duplicate, while solvent controls were replicated eight times. IL-6 and adiponectin secretion were represented relative to the IL-6 and adiponectin secretion of the t10-CLA only controls as the IL-6 and adiponectin index and differences among the means were analyzed by the student's t-test assuming a five percent probability of a type I error (Excel; Microsoft, Redmond, Wash.).

In experiment [3] the test system is 3T3-L1 adipocytes. Briefly: Lipolysis (glycerol assay) in 3T3-L1 adipocytes. It counts as cell-based, murine. To be noted: forskolin 82 μg/mL, test materials 5 μg/mL (FIG. 9). The procedure:
(§1) Culture and treatment of 3T3-L1 adipocytes and C2C12 myocytes was as described in Example 5. Concentrations of the forskolin positive control and test materials are listed in FIG. 9 for adipocytes and FIG. 10 for myocytes. Free fatty acid release from 3T3-L1 adipocytes or C2C12 myocytes was quantified by measuring glycerol secretion into the medium. Glycerol was measured spectrophotometrically using the Free Glycerol Determination Kit ([…], Sigma) and an EL 312e Microplate BIO-KINETICS spectrophotometer (BioTek, Winooski, Vt.). Glycerol release from adipocytes and myocytes was expressed, respectively, as the percent increase in free fatty acid secretion (FIG. 9) and relative glycerol content (glycerol index FIG. 10) ±95% confidence intervals of eight observations for one of three representative experiments.

The test system of experiment [4] is LPS-stimulated macrophages. To be noted: published results, El-Mahmoudy 2002; cited from earlier work.
Experiment [5] deals with prostate specific antigen (PSA) secretion by LNCaP prostate cells. Kind of experiment: PSA secretion from LNCaP prostate cells. It counts as cell-based, Human. To be noted: 5 to 100 μg/mL (Spent#1, NSSpent#2: 250 and 500). An excerpt:
PSA was quantified from the cell culture supernatant fluid using the Quantikine Human KLK3/PSA Immunoassay kit (R&D Systems, Inc., Minneapolis, Minn.). All other materials used in this example were purchased from Sigma (St. Louis, Mo.) or otherwise noted and were of the highest purity commercially available. The N. sativa samples used in this study were those commercial-scale extracts described in Example 1. The LNCaP prostate cell line, which produces PSA, was used to study the effects of commercial-scale N. sativa scale extracts of Example 1 and pure TQ on the secretion of PSA. LNCaP cells were purchased from the American Type Culture Collection (ATCC, Manassas, Va.) and sub-cultured according to instructions supplied by ATCC. Prior to experiments, cells were cultured in DMEM containing 10% FBS-HI added 50 units penicillin/ml and 50 μg streptomycin/ml, and maintained in log phase prior to experimental setup. Cells were grown in a 5% CO2 humidified incubator at 37° C. Components of medium included: (1) 10% FBS/DMEM (Fetal Bovine Serum/Dulbecco's Modified Eagle's Medium) containing 4.5 g glucose/L; (2) 50 U/ml penicillin; and (3) 50 μg/ml streptomycin. Growth medium was made by adding 50 ml of heat inactivated FBS and 5 ml of penicillin/streptomycin to 500 ml DMEM. This medium was stored at 4° C. Before use, the medium was warmed to 37° C. in a water bath. LNCaP cells were seeded at an initial density of 6×10^4 cells/cm^2 in 96-well plates. For two days, the cells were allowed grow to reach confluence. On day three post seeding, cells were treated with TQ, NS8, NS9, NS10, Spent#1, and NSSpent#2 at the concentrations listed in FIGS. 5, 6 and 7. Twenty-four hours later, the supernatant media were sampled and assayed for PSA.

Experiment [6] has as its system adiponectin secretion in 3T3-L1 adipocytes. Briefly: Adiponectin secretion in t10-CLA-stimulated 3T3-L1 adipocytes. It counts as cell-based, murine. To be noted: t10-CLA 50 μM control = 100; μg TQ equivalents/mL: Thymoquinone 5.0, NS8 0.11, NS9 0.99, NS10 0.012, NSSpent#2 0.0005; NSSpent#1 5 μg/mL; listed as TQ. The procedure:
The 3T3-L1 murine fibroblast model as used in Example 4 was used in this experiments. Test materials were added four hours prior to the addition of t10-CLA at a concentration of 50 μM. Following overnight incubation, the supernatant media were sampled for determination of IL-6 and adiponectin. The adiponectin secreted into the medium was quantified using the Mouse Adiponectin Quantikine® Immunoassay kit with no modifications (R&D Systems, Minneapolis, Minn.). […] Test materials and were assayed in duplicate, while solvent controls were replicated eight times. IL-6 and adiponectin secretion were represented relative to the IL-6 and adiponectin secretion of the t10-CLA only controls as the IL-6 and adiponectin index and differences among the means were analyzed by the student's t-test assuming a five percent probability of a type I error (Excel; Microsoft, Redmond, Wash.).

For experiment [7], the system named is C2C12 myocytes. Kind of experiment: Lipolysis (glycerol assay) in C2C12 myocytes. It counts as cell-based, murine. To be noted: 5 or 2.5 μg/mL (FIG. 10). The procedure:
as §1

Regarding `CC1=CC(=O)C(C(C)C)=CC1=O` [Thymoquinone, thymoquinone], the “DPPH Reducing Activity” value in experiment [1] was 45.2 μmol Trolox/g TQ. Also, the “IL-6 Index” value in experiment [2] is on record as “inhibited IL-6 secretion”. Further, the “free fatty acid release in adipocytes” value in experiment [3] is reported as “induced free fatty acid release”. Moreover, the “IC50 for NO inhibition in LPS-stimulated macrophages” value in experiment [4] was 1.4 to 2.8 µg/mL. In addition, the “Effect on PSA Secretion over 24 Hours” value in experiment [5] (at 5 and 10 µg/mL) was “Decreased PSA at 5 and 10 μg/mL, dramatic”; in experiment [5] (at 50 and 100 µg/mL), “increase in PSA secretion at 50 and 100 μg/mL”; in experiment [5] (listed as TQ) it was “decreased PSA only at the two lowest doses tested”. Besides, the “Adiponectin Index” value in experiment [6] is given as “attenuated t10-CLA-stimulated decrease of adiponectin secretion”. Besides, the “free fatty acid release in myocytes” value in experiment [7] is given as “induced free fatty acid release”.
